# Test results published in patent publication US5294603A, “Pharmaceutical compositions containing didemnins” (The Board of Trustees of The University of Illinois, priority 1992, dated 1994).
# Like-named read-outs stand apart in the source and are kept apart here. Numbered stars: 1 amine (or outer) side, 2 acyl side, 3 side chain; on linkers, the order of the positions; unused ones are H or OH. Bridge positions count the residues as written; N and C are the ends. Square brackets hold non-standard residues; d marks the D form. Peptide text beside a SMILES is read from it. * marks the point of attachment. X1 = CC[C@H](C)[C@@H](N[*:1])[C@@H](O)CC(=O)O[C@H](C(=O)[C@H](C)C(=O)[*:2])C(C)C; NMeY = CN[C@@H](Cc1ccc(O)cc1)C(=O)O; dNMeL = CN[C@H](CC(C)C)C(=O)O; Isobutyryl = CC(C)C(=O)*; Aze = O=C(O)[C@@H]1CCN1; Pyruvoyl = CC(=O)C(=O)*; Propionyl = CCC(=O)*
# What was measured:
# [1] = system: cells of the VIV assay (not named)
# [2] = system: L1210 murine leukemia cells; conditions: Table 9
# [3] = system: Nb2 cells, rat T-cell node lymphoma; assay: Competitive binding with [3H]didemnin B to Nb2 cells; conditions: 3 h at 37° C.
# Protocol: The immunosuppressive assay was performed by measuring competitive binding of tested compounds with [^3 H]didemnin B to Nb2 cells, rat T-cell node lymphoma. See, Russell, D. H., et al., J. Immunology, 1987, 138, 276-284.
# ^a Competing didemnins incubated with approximately 25 ng of [^3
# L1210 [4] = system: L1210
# Visna virus (VIV) = format: cell-based; parameters: key to % Protection / VIV Protection: I, indeterminate
# [5] = system: BHK = Baby hamster kidney cells
# [6] = system: DNA synthesis in Nb2 node lymphoma cells; assay: Inhibition of ongoing DNA synthesis in prolactin-stimulated Nb2 cells; format: cell-based, rat; conditions: Nb2 cells stimulated with prolactin for 24 h
# Protocol: Also inhibitions of protein and DNA synthesis of several compounds were measured using Nb2 node lymphoma cells which were stimulated by a treatment of cells with prolactin. (ibid.)
# ^a Nb2 cells were stimulated with prolactin for 24 h, then exposed to
# ^b 50% Inhibitory concentration, calculated with linear regression
# L1210 [7] = assay: L1210 cytotoxicity, inhibition at fixed doses (Table 10); format: cell-based, murine
Structure (SMILES),Cytotoxicity L1210 IC50 [2] [ng/mL],Inhibition of [3H]didemnin B binding (%) ([3]; 0.001 μg/mL),Inhibition of [3H]didemnin B binding (%) ([3]; 0.01 μg/mL),Inhibition of [3H]didemnin B binding (%) ([3]; 0.1 μg/mL),Inhibition of [3H]didemnin B binding (%) ([3]; 1 μg/mL),VIV Protection (Visna virus (VIV)),BHK [5],also measured
"CCC(=O)N(C)[C@H](CC(C)C)C(=O)N[C@@H]1C(=O)N[C@H]([C@@H](C)CC)[C@@H](O)CC(=O)O[C@@H](C(C)C)C(=O)[C@H](C)C(=O)N[C@@H](CC(C)C)C(=O)N2CCC[C@H]2C(=O)N(C)[C@@H](Cc2ccc(OC)cc2)C(=O)O[C@@H]1C [(N-Propionyl)Didemnin A (98), N-propionyl-didemnin A] (Propionyl-[dNMeL]T[X1]LP[NMeY](Me); ester 2-C)",0.3,3,2,40,72,I,"0, PT",VIV Toxicity [1]: 92; cytotoxicity (result in words) (L1210 [4]; Table 1 footnote and text): retained the cytotoxicity of didemnin B; Cytotoxicity percent L1210 inhibition (L1210 [4]; dose 5 ng/mL): 93%; Cytotoxicity percent L1210 inhibition (L1210 [4]; dose 12.5 ng/mL): 95%; Cytotoxicity percent L1210 inhibition (L1210 [4]; dose 25 ng/mL): 95%
"Cc1cn([C@H]2C[C@H](N=[N+]=[N-])[C@@H](CO)O2)c(=O)[nH]c1=O [AZT, reference compound]",,,,,,,,% Cytotoxicity ([1]; 1 µM): 5; % Cytotoxicity ([1]; 3 µM): 7; % Cytotoxicity ([1]; 10 µM): 11; % Cytotoxicity ([1]; 30 µM): 14
"CC[C@H](C)[C@H]1NC(=O)[C@@H](NC(=O)[C@@H](CC(C)C)NC)[C@@H](C)OC(=O)[C@H](Cc2ccc(OC)cc2)N(C)C(=O)[C@@H]2CCCN2C(=O)[C@H](CC(C)C)NC(=O)[C@@H](C)C(=O)[C@H](C(C)C)OC(=O)C[C@@H]1O [Didemnin A (1), Didemnin A, reference compound] (H-[dNMeL]T[X1]LP[NMeY](Me); ester 2-C)",30,3,8,20,35,< 0,,"IC50 DNA [6]: 2000 ng/mL; Inhibition (%) (L1210 [7]; dose 25 ng/mL, tested 4/22/1990): 80%; Inhibition (%) (L1210 [7]; dose 250 ng/mL, tested 4/22/1990): 100%; Cytotoxicity percent L1210 inhibition (L1210 [4]; dose 5 ng/mL): 0%; Cytotoxicity percent L1210 inhibition (L1210 [4]; dose 12.5 ng/mL): 19%; Cytotoxicity percent L1210 inhibition (L1210 [4]; dose 25 ng/mL): 25%"
"CC[C@H](C)[C@H]1NC(=O)[C@@H](NC(=O)[C@@H](CC(C)C)N(C)C(=O)[C@@H]2CCCN2C(=O)C(C)O)[C@@H](C)OC(=O)[C@H](Cc2ccc(OC)cc2)N(C)C(=O)[C@@H]2CCCN2C(=O)[C@H](CC(C)C)NC(=O)[C@@H](C)C(=O)[C@H](C(C)C)OC(=O)C[C@@H]1O (stereo partly shown) [Didemnin B (17), Didemnin B, reference compound]",0.5,3,7,59,77,,,"IC50 DNA [6]: 90 ng/mL; Inhibition (%) (L1210 [7]; dose 25 ng/mL, tested 4/18/1991): 99%; Inhibition (%) (L1210 [7]; dose 250 ng/mL, tested 4/18/1991): 99%; IC50 (L1210 cells): 0.5 ng/mL; Cytotoxicity percent L1210 inhibition (L1210 [4]; dose 5 ng/mL): 93%; Cytotoxicity percent L1210 inhibition (L1210 [4]; dose 12.5 ng/mL): 95%; Cytotoxicity percent L1210 inhibition (L1210 [4]; dose 25 ng/mL): 95%"
"CC[C@H](C)[C@H]1NC(=O)[C@@H](NC(=O)[C@@H](CC(C)C)N(C)C(=O)[C@@H](N)CC(C)C)[C@@H](C)OC(=O)[C@H](Cc2ccc(OC)cc2)N(C)C(=O)[C@@H]2CCCN2C(=O)[C@H](CC(C)C)NC(=O)[C@@H](C)C(=O)[C@H](C(C)C)OC(=O)C[C@@H]1O [N-(L-Leu)Didemnin A (99), N-(L-Leu)didemnin A] (H-L[dNMeL]T[X1]LP[NMeY](Me); ester 3-C)",4,,,,,,"0, PT",
"CC[C@H](C)[C@H]1NC(=O)[C@@H](NC(=O)[C@@H](CC(C)C)N(C)C(=O)[C@@H]2CCCN2)[C@@H](C)OC(=O)[C@H](Cc2ccc(OC)cc2)N(C)C(=O)[C@@H]2CCCN2C(=O)[C@H](CC(C)C)NC(=O)[C@@H](C)C(=O)[C@H](C(C)C)OC(=O)C[C@@H]1O [N-(L-Pro)Didemnin A (100), N-(L-Prolyl) didemnin A] (H-P[dNMeL]T[X1]LP[NMeY](Me); ester 3-C)",4,,,,,< 0,"0, PT",
"COc1ccc(C[C@H]2C(=O)O[C@H](C)[C@H](NC(=O)C(CC(C)C)N(C)C(=O)[C@@H]3CCCN3C(=O)[C@H](C)O)C(=O)N[C@H](C(C)C)[C@@H](O)CC(=O)O[C@@H](C(C)C)C(=O)[C@H](C)C(=O)N[C@@H](CC(C)C)C(=O)N3CCC[C@H]3C(=O)N2C)cc1 (stereo partly shown) [Nordidemnin B (22), Nordidemnin B]",1,,,,,-25,"0, PT",
"CC[C@H](C)[C@H]1NC(=O)[C@@H](NC(=O)[C@@H](CC(C)C)NC)[C@@H](C)OC(=O)[C@H](Cc2ccc(OC)cc2)N(C)C(=O)[C@@H]2CCCN2C(=O)[C@H](CC(C)C)NC(=O)[C@@H](C)C(=O)[C@H](C(C)C)OC(=O)C[C@@H]1OC(C)=O [O-Acetyldidemnin A (114), O-Acetyldidemnin A]",300,1,4,15,10,,"0, PT","IC50 DNA [6]: 270,000 ng/mL"
"CC[C@H](C)[C@H]1NC(=O)[C@@H](NC(=O)[C@@H](CC(C)C)N(C)C(=O)[C@@H]2CCN2C(=O)C(C)=O)[C@@H](C)OC(=O)[C@H](Cc2ccc(OC)cc2)N(C)C(=O)[C@@H]2CCCN2C(=O)[C@H](CC(C)C)NC(=O)[C@@H](C)C(=O)[C@H](C(C)C)OC(=O)C[C@@H]1O [Pyruv-Azt-DA, Pyruv-Azt Didemnin A] (Pyruvoyl-[Aze][dNMeL]T[X1]LP[NMeY](Me); ester 3-C)",,,,,,,,% Cytotoxicity [1]: 77; IC50 (L1210 cells): 0.6 ng/mL; % Protection (Visna virus (VIV)): I
CC[C@H](C)[C@H]1NC(=O)[C@@H](NC(=O)[C@@H](CC(C)C)N(C)C(=O)[C@H]2CCCN2C(=O)C(C)C)[C@@H](C)OC(=O)[C@H](Cc2ccc(OC)cc2)N(C)C(=O)[C@@H]2CCCN2C(=O)[C@H](CC(C)C)NC(=O)[C@@H](C)C(=O)[C@H](C(C)C)OC(=O)C[C@@H]1O [[Isobutyryl^9 -D-Pro^8]didemnin B] (Isobutyryl-[dP][dNMeL]T[X1]LP[NMeY](Me); ester 3-C),10,0,0,25,69,,"0, PT",
"CCC(=O)N1CCC[C@H]1C(=O)N(C)[C@H](CC(C)C)C(=O)N[C@@H]1C(=O)N[C@H]([C@@H](C)CC)[C@@H](O)CC(=O)O[C@@H](C(C)C)C(=O)[C@H](C)C(=O)N[C@@H](CC(C)C)C(=O)N2CCC[C@H]2C(=O)N(C)[C@@H](Cc2ccc(OC)cc2)C(=O)O[C@@H]1C [[Propionyl^9] Didemnin B (104), [Propionyl^9]didemnin B] (Propionyl-P[dNMeL]T[X1]LP[NMeY](Me); ester 3-C)",0.2,,,,,-113,"0, PT",
